Experimental data reported in ChEMBL document CHEMBL1141596, “A new class of bradykinin B1 receptor antagonists with high oral bioavailability and minimal PXR activity” (Bioorg Med Chem Lett, 2008).

Tests used:
[1] = Apparent permeability by cell based assay; format: ADME; details: not told
[2] = Oral bioavailability in Sprague-Dawley rat at 10 mg/kg; format: ADME, organism-based; details: in vivo
[3] = Half life in Sprague-Dawley rat at 10 mg/kg, po or 2 mg/kg, iv; format: ADME, organism-based; details: in vivo
[4] = Clearance in Sprague-Dawley rat at 10 mg/kg, po or 2 mg/kg, iv; format: ADME, organism-based; details: in vivo
[5] = target: T1, PXR (Nuclear receptor subfamily 1 group I member 2) (Homo sapiens, UniProt O75469); test: Reduction of PXR activation at 10 uM relative to rifampicin; parameters: scale not given: the % may be the effect or the level left; details: read-out: Activity
T1 sequence (O75469 whole entry): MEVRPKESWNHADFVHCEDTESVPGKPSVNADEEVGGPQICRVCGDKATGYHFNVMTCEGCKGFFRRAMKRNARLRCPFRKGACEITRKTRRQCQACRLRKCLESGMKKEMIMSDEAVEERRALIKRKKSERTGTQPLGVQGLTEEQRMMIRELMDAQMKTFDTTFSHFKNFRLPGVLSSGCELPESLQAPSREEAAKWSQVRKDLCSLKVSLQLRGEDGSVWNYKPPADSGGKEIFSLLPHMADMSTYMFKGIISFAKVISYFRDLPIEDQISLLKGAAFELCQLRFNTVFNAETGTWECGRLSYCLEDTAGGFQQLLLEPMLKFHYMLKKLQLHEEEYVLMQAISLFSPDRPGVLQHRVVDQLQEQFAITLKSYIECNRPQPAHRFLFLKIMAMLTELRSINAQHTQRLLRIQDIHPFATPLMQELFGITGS

B1 bradykinin receptor = target: T2, B1 bradykinin receptor (Homo sapiens, UniProt P46663); test: Binding affinity to human bradykinin B1 receptor expressed in rat CNS
T2 sequence (P46663 whole entry): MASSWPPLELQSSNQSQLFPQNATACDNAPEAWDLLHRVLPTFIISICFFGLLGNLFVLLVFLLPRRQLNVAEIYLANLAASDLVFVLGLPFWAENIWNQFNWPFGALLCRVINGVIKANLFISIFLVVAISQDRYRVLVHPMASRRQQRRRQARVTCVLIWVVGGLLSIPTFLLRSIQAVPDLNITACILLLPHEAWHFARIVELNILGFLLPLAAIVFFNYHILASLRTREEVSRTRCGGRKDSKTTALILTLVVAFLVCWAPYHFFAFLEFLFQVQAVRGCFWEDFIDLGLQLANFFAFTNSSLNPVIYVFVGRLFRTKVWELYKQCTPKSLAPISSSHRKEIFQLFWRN

[6] = Half life in Mongrel dog at 1 mg/kg, iv; format: ADME, organism-based, Canis lupus familiaris; parameters: dose 1 mg/kg, route intravenous; details: in vivo
[7] = Clearance in Mongrel dog at 1 mg/kg, iv; format: ADME, organism-based, Canis lupus familiaris; parameters: dose 1 mg/kg, route intravenous; details: in vivo
[8] = Ratio of permeability from basolateral to apical over apical to basolateral side in P-gp expressing cells
[9] = target: T3, B1 bradykinin receptor (Homo sapiens) (UniProt P46663); test: Ex vivo receptor occupancy at bradykinin B1 receptor
T3 sequence (whole entry): T2 sequence (P46663 whole entry)

[10] = Ratio of drug level in brain to plasma in african green monkey; format: ADME, organism-based; details: chlorocebus aethiops
[11] = Oral bioavailability in Mongrel dog at 3 mg/kg; format: ADME, organism-based, Canis lupus familiaris; details: in vivo
[12] = Oral bioavailability in rhesus monkey at 3 mg/kg; format: ADME, organism-based, Macaca mulatta; details: in vivo
[13] = Half life in rhesus monkey at 3 mg/kg, po or 1 mg/kg, iv; format: ADME, organism-based, Macaca mulatta; details: in vivo
[14] = Clearance in rhesus monkey at 3 mg/kg, po or 1 mg/kg, iv; format: ADME, organism-based, Macaca mulatta; details: in vivo

SMILES | Papp [1] [×10⁻⁶ cm/s] | bioavailability [2] [%] | half-life [3] [h] | clearance [4] [mL/min/kg] | activity at 10 µM [5] [%] | Ki (B1 bradykinin receptor) [nM] | half-life [6] [h] | clearance [7] [mL/min/kg] | Ratio [8] | Occ90 [9] [nM] | Kp [10] | bioavailability [11] [%] | bioavailability [12] [%] | half-life [13] [h] | clearance [14] [mL/min/kg]
C[C@@H](NC(=O)C1(NC(=O)c2ccon2)CC1)c1ncc(-c2cc(Cl)cc(Cl)c2OCC(F)F)cc1F | 35 | – | – | – | 23 | 1.2 | 18 | 2 | 1.8 | – | – | – | – | – | –
C[C@@H](NC(=O)C1(NC(=O)c2cc(C3CC3)on2)CC1)c1ncc(-c2cc(Cl)cc(Cl)c2OCC(F)F)cc1F | 18 | – | – | – | 58 | 2.6 | 6.9 | 13 | 3.8 | – | – | – | – | – | –
CCOc1c(Cl)cc(Cl)cc1-c1cnc([C@@H](C)NC(=O)C2(NC(=O)c3ccno3)CC2)c(F)c1 | – | 7 | 1.9 | 10 | 15 | 0.6 | 4.5 | 7 | – | 380 | 1.4 | 55 | 3 | 1.2 | 15
COC(=O)c1c(Cl)cc(Cl)cc1-c1ccc([C@@H](C)NC(=O)C2(NC(=O)c3cc(OC)no3)CC2)c(F)c1 | – | – | – | – | 40 | 0.4 | – | – | 5.1 | – | – | – | – | – | –
CCc1cc(C(=O)NC2(C(=O)N[C@H](C)c3ncc(-c4cc(Cl)cc(Cl)c4OCC(F)F)cc3F)CC2)no1 | 25 | – | – | – | 37 | 1.9 | 4.5 | 14 | 2 | – | – | – | – | – | –
Cc1cc(C(=O)NC2(C(=O)N[C@H](C)c3ncc(-c4cc(Cl)cc(Cl)c4OCC(F)F)cc3F)CC2)no1 | 23 | 30 | 3 | 5.1 | 28 | 1.4 | 9.4 | 4.5 | 1.5 | 940 | 0.9 | 21 | 25 | 1.6 | 9.1
COc1cc(C(=O)NC2(C(=O)N[C@H](C)c3ncc(-c4cc(Cl)cc(Cl)c4OCC(F)F)cc3F)CC2)on1 | 28 | 44 | 4.5 | 2.4 | 8 | 0.5 | 21 | 1.2 | 2 | 540 | 0.7 | 94 | 93 | 6.2 | 1.6
CCOc1cc(C(=O)NC2(C(=O)N[C@H](C)c3ncc(-c4cc(Cl)cc(Cl)c4OCC(F)F)cc3F)CC2)on1 | 25 | – | – | – | 37 | 1.1 | 13.5 | 3 | 2.1 | – | – | – | – | – | –
C[C@@H](NC(=O)C1(NC(=O)C(F)(F)F)CC1)c1ncc(-c2cc(Cl)cc(Cl)c2OCC(F)F)cc1F | 23 | – | – | – | 99 | 1.5 | 21 | 2.3 | – | – | – | – | – | – | –
C[C@@H](NC(=O)C1(NC(=O)c2ccno2)CC1)c1ncc(-c2cc(Cl)cc(Cl)c2OCC(F)F)cc1F | 29 | – | – | – | 21 | 0.4 | 4 | 5.9 | 3.9 | – | – | – | – | – | –
CCOc1c(Cl)cccc1-c1ccc([C@@H](C)NC(=O)C2(NC(=O)C(F)(F)F)CC2)c(F)c1 | 29 | 48 | 1.9 | 16 | – | 0.9 | – | – | 1.9 | – | – | – | – | – | –
C[C@@H](NC(=O)C1(NC(=O)c2cc(Cl)no2)CC1)c1ncc(-c2cc(Cl)cc(Cl)c2OCC(F)F)cc1F | 26 | – | – | – | 68 | 0.2 | 34 | 2.6 | 1.6 | – | – | – | – | – | –
CCOc1c(Cl)cc(Cl)cc1-c1cnc([C@@H](C)NC(=O)C2(NC(=O)C(F)(F)F)CC2)c(F)c1 | – | 8 | 5 | 11.3 | 89 | 1.5 | – | – | – | 1450 | 2.2 | – | – | – | –

Other lines, results leading:

Papp [1] [×10⁻⁶ cm/s] | bioavailability [2] [%] | half-life [3] [h] | clearance [4] [mL/min/kg] | activity at 10 µM [5] [%] | Ki (B1 bradykinin receptor) [nM] | half-life [6] [h] | clearance [7] [mL/min/kg] | Ratio [8] | Occ90 [9] [nM] | Kp [10] | bioavailability [11] [%] | bioavailability [12] [%] | half-life [13] [h] | clearance [14] [mL/min/kg] | SMILES
6.3 | 35 | 27 | 1.1 | 45 | 1.8 | – | – | – | – | – | – | – | – | – | C[C@@H](NC(=O)C1(NC(=O)C(F)(F)F)CC1)c1ccc(-c2cc(Cl)cc(Cl)c2OCC(F)(F)F)cc1F
– | – | – | – | 77 | 0.4 | 1.6 | 20 | – | – | – | – | – | – | 11.2 | COC(=O)c1c(Cl)cc(Cl)cc1-c1ccc([C@@H](C)NC(=O)C2(NC(=O)C(F)(F)F)CC2)c(F)c1
18 | 38 | 7.5 | 11.5 | 62 | 1.3 | – | – | – | – | – | – | – | – | – | CCOc1c(Cl)cc(Cl)cc1-c1ccc([C@@H](C)NC(=O)C2(NC(=O)C(F)(F)F)CC2)c(F)c1
28 | 56 | 5 | 1.6 | – | 0.9 | – | – | – | – | – | – | – | – | – | C[C@@H](NC(=O)C1(NC(=O)C(F)(F)F)CC1)c1ccc(-c2cc(Cl)cc(Cl)c2OC(CF)CF)cc1F
– | – | – | – | – | 2.3 | – | – | – | – | – | – | – | – | – | CC(C)Oc1c(Cl)cc(Cl)cc1-c1ccc([C@@H](C)NC(=O)C2(NC(=O)C(F)(F)F)CC2)c(F)c1
26 | – | 7.6 | 5.8 | 95 | 0.2 | – | – | – | – | – | – | – | – | – | C[C@@H](NC(=O)C1(NC(=O)C(F)(F)F)CC1)c1ccc(-c2cc(Cl)cc(Cl)c2OCC(F)F)cc1F
